Patent publication US20240317755A1, “HETEROCYCLIC COMPOUND, AND INTERMEDIATE THEREOF, PREPARATION METHOD THEREFOR AND USE THEREOF” (WUHAN LL SCIENCE AND TECHNOLOGY DEVELOPMENT CO., LTD., priority 2021, published 2024)

Experiments:
[1] = PK study of male SD rats after single intragastric administration (5% solutol); type: in vivo; conditions: rat, plasma, single PO compound 1-6 100 mg/kg; for AUC(0-inf) / AUC(0-t) / Cmax / MRT last / half-life: male, SD, po, 100 mg/kg
Method: Effect Example 2: PK Study of Male SD Rats after Single Intragastric Administration of Compound (Using 5% Solutol as a Solvent)
To explore the time-plasma concentration curves of the compound in the plasma of male rats after single intragastric administration of compound 1 (125 mg/kg) and compound 1-6 (100 mg/kg) of the present disclosure and to obtain PK parameters (Cmax, Tmax, AUClast, AUCinf, T1/2, MRT, etc.) of the rats after single administration of compound 1 and compound 1-6 of the present disclosure.
(§1) Rats: SD rats, SPF grade, 3 males, weight range of 180 to 200 g (source: Beijing Vital River Laboratory Animal Technology Co., Ltd., certificate number: 110011201109106028); • feeding conditions: ordinary animal house feeding, free access to food and water, 3 animals/cage rearing, 12/12 hours light/dark cycle adjustment (7:00 am/7:00 pm), temperature of 23±1° C.
Dispensing: After accurately weighing the compounds in the PO group, 5% solutol of the required volume was added thereto first, vortexed and mixed evenly for 2 min, sonicated for 30 min, stirred for 2 hours until no visible particles were visible to the naked eye, and the drug was administered while stirring, and the middle layer of the drug solution was taken for drug administration.
as §1, with “220” for “180”, “300” for “200”, “SPF (Beijing) Biotechnology” for “Beijing Vital River Laboratory Animal Technology”, “110324200103216838);” for “110011201109106028);”
Dispensing: After accurately weighing compound 1-6 in the PO group, 5% solutol of the required volume was added first, vortexed and mixed evenly for 2 min, sonicated for 30 min, stirred for 3 hours until no visible particles were visible to the naked eye; • the drug solution was prepared and used immediately, and a sample of the drug solution must be retained for analysis, and two samples of 100 μL each of the upper, middle, and lower suspensions were taken and sent for analysis and testing on the same day.
The rats were randomly divided into 3 groups according to body weight, and the specific grouping and administration are as follows:
• 1. The animals in the PO group were fasted overnight with free access to water before administration, and the food was returned 4 hours after administration; • 2. time points for blood sampling: the time points for blood sampling in the PO group were 0.167, 0.5, 1, 2, 3, 4, 6, 9, 12, and 24 hours.
• 1. The animals in the PG group were fasted overnight with free access to water before administration, and the food was returned 4 hours after administration; • 2. time points for blood sampling: the time points for blood sampling in the PG group were 0.167, 0.5, 1, 2, 3, 4, 6, 9, 12, and 24 hours.
After administration to rats, blood was collected from the orbital venous plexus according to the sampling time points. About 0.2 to 0.3 mL of blood was collected at each time point and transferred to an anticoagulant EP tube (containing 4 μL of EDTA-K2, 375 mg/mL). The tube was gently inverted three times and stored in an ice box (not exceeding 30 minutes). After centrifugation at 3500×g for 10 minutes at 4° C., the supernatant was transferred to a labeled EP tube. Hemolysis was observed and recorded, and the sample was sent to bioassay for testing. If the sample could not be analyzed the same day, the sample was stored at −80° C. until further testing (be careful not to perform multiple freezing/thawing processes). […]

[2] = Pharmacokinetic study in mice in vivo (gavage and tail vein injection); conditions: for AUC(0-t) / Cmax: dose 1 mg/kg
Description: […] Mouse plasma was collected at a specific time point after administration, and the concentration of the compound in plasma was detected by LC-MS/MS (AB SCIEX Qtrap4500). PK parameters of each compound (WinNonlin V5.2, Pharsight) were statistically analyzed and calculated to reflect the pharmacokinetic properties of the compounds of the present disclosure in mice in vivo.

[3] = Liver microsome half-life assay, mouse; type: in vitro ADME; conditions: liver microsomes, 1 mg/mL liver microsomal protein, 37° C., read-out: Liver microsome T½ (min) Mouse
Method: The in vitro metabolic stability of the compounds of the present disclosure was determined using warm incubation method of liver microsomes in various species. A proper amount of test compound was added to the liver microsomal reaction system (1 mg/mL liver microsomal protein, 25 U/mL glucose-6-phosphate dehydrogenase, 1 mM NADP, 6 mM D-glucose 6-phosphate, 5 mM MgCl2), and the reaction was started by warm incubation in a water bath at 37° C., then 100 μL of the reaction mixture at each time point was added to a centrifuge tube containing 400 μL of internal standard working solution precooled at 0° C. (containing a solution of 200 ng/mL dexamethasone, diclofenac, tolbutamide, and labetalol in acetonitrile), then the reaction was terminated, centrifuged at 4° C. and 10,000 g for 10 min, and the supernatant was taken into LC-MS for analysis and detection to obtain in vitro metabolic half-lives of the test compounds in liver microsomes of various species.

[4] = analyte compound 1-6, mean value

AUC(0-inf) ([1]; analyte compound 1-6, animal 4): 14500 ng·h/mL
AUC(0-t) ([1]; analyte compound 1-6, animal 4): 13500 ng·h/mL
Cmax ([1]; analyte compound 1-6, animal 4): 1210 ng/mL
MRT last ([1]; analyte compound 1-6, animal 4): 8.03 h
half-life ([1]; analyte compound 1-6, animal 4): 5.95 h
AUC(0-inf) ([1]; analyte compound 1-6, animal 5): 11500 ng·h/mL
AUC(0-t) ([1]; analyte compound 1-6, animal 5): 11200 ng·h/mL
Cmax ([1]; analyte compound 1-6, animal 5): 1290 ng/mL
MRT last ([1]; analyte compound 1-6, animal 5): 6.38 h
half-life ([1]; analyte compound 1-6, animal 5): 4.09 h
AUC(0-inf) ([1]; analyte compound 1-6, animal 6): 27500 ng·h/mL
AUC(0-t) ([1]; analyte compound 1-6, animal 6): 18200 ng·h/mL
Cmax ([1]; analyte compound 1-6, animal 6): 1150 ng/mL
MRT last ([1]; analyte compound 1-6, animal 6): 10 h
half-life ([1]; analyte compound 1-6, animal 6): 14.5 h
AUC(0-inf) [1, 4]: 17800 ng·h/mL
AUC(0-t) [1, 4]: 14300 ng·h/mL
Cmax [1, 4]: 1220 ng/mL
MRT last [1, 4]: 8.15 h
half-life [1, 4]: 5.02 h
Tmax ([1]; analyte compound 1-6, animal 4): 4 h
AUC(0-t) ([2]; mouse, plasma, iv): 1860 ng·h/mL
Cmax ([2]; mouse, plasma, iv): 1110 ng/mL
bioavailability ([2]; mouse, plasma, po, 1 mg/kg, p.o. vs i.v.): 66.8%
AUC(0-t) ([2]; mouse, plasma, po): 1240 ng·h/mL
Cmax ([2]; mouse, plasma, po): 422 ng/mL
time of peak plasma concentration ([2]; oral administration, 10 mg/kg, previous PK results): 1 h
half-life [3]: 78 min
Compound: O=C(c1ccc(F)cc1C(F)(F)F)c1cnc2n1CCN(c1cn[nH]c(=O)c1Cl)C2 [Compound 1-6, 4-chloro-5-(3-(4-fluoro-2-(trifluoromethyl)benzoyl)-5,6-dihydroimidazo[1,2-a]pyrazin-7(8H)-yl)pyridazin-3(2H)-one]
